According to patent publication US20230365592A1 (Agios Pharmaceuticals, Inc., priority 2022, published 2023):

biological target: T1, human PAH with the R408W mutation (Homo sapiens, UniProt P00439, R408W); assay: Cell Based Phenylalanine Flux Assay; conditions: A375 cells expressing human PAH R408W; 24 hrs compound incubation; 13C-Tyrosine by LC-MS; average where tested multiple times; read-out: AC50;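 further: after compound treatment, cells received sepiapterin plus isotope-labelled Phenylalanine for 4 hours, then labelled Tyrosine in the medium was quantified, 10-point 2-fold dilution series run in duplicate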
T1 construct: expressed in transfected cells
T1 sequence (P00439 1-452 R408W): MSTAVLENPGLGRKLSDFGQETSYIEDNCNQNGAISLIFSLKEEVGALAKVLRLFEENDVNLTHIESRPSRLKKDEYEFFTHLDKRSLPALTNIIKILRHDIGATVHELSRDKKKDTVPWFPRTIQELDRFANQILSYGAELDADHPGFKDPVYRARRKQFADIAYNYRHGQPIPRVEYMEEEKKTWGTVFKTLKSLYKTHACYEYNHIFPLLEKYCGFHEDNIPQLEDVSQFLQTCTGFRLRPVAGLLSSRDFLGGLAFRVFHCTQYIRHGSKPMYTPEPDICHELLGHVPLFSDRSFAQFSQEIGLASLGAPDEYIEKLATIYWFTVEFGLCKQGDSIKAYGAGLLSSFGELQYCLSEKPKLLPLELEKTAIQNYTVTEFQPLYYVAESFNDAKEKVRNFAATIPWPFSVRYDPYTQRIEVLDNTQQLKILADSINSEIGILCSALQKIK

| Structure (SMILES) | AC50 [nM] |
| --- | --- |
| O=C(c1ocnc1C1CC1)N1CCc2[nH]cnc2[C@H]1c1cc2cccc(C(F)F)n2n1 [Example 2112, (S)-(4-cyclopropyloxazol-5-yl)(4-(7-(difluoromethyl)pyrazolo[1,5-a]pyridin-2-yl)-1,4,6,7-tetrahydro-5H-imidazo[4,5-c]pyridin-5-yl)methanone] | 500 to 1000 |
| O=C(c1ocnc1C1CC1)N1CCc2[nH]cnc2[C@@H]1c1cc2cccc(C(F)F)n2n1 [Example 2113, (R)-(4-cyclopropyloxazol-5-yl)(4-(7-(difluoromethyl)pyrazolo[1,5-a]pyridin-2-yl)-1,4,6,7-tetrahydro-5H-imidazo[4,5-c]pyridin-5-yl)methanone] | > 5000 |
| O=C(c1oc(-c2ccccn2)nc1C1CC1)N1CCc2[nH]cnc2[C@H]1c1cc2c(F)cccn2n1 [Example 2118, (S)-(4-cyclopropyl-2-(pyridin-2-yl)oxazol-5-yl)(4-(4-fluoropyrazolo[1,5-a]pyridin-2-yl)-1,4,6,7-tetrahydro-5H-imidazo(4,5-c]pyridin-5-yl)methanone] | < 500 |
| O=C(c1oc(-c2ccccn2)nc1C1CC1)N1CCc2[nH]cnc2[C@@H]1c1cc2c(F)cccn2n1 [Example 2119, (R)-(4-cyclopropyl-2-(pyridin-2-yl)oxazol-5-yl)(4-(4-fluoropyrazolo[1,5-a]pyridin-2-yl)-1,4,6,7-tetrahydro-5H-imidazo[4,5-c]pyridin-5-yl)methanone] | 1000 to 5000 |
| Cc1cccn2nc([C@@H]3c4nc[nH]c4CCN3C(=O)c3oc(-c4ccccn4)nc3C3CC3)cc12 [Example 2120, (S)-(4-cyclopropyl-2-(pyridin-2-yl)oxazol-5-yl)(4-(4-methylpyrazolo[1,5-a]pyridin-2-yl)-1,4,6,7-tetrahydro-5H-imidazo[4,5-c]pyridin-5-yl)methanone] | < 500 |
| Cc1cccn2nc([C@H]3c4nc[nH]c4CCN3c3ccccn3)cc12 [Example 2126, (R)-4-(4-methylpyrazolo[1,5-a]pyridin-2-yl)-5-(pyridin-2-yl)-4,5,6,7-tetrahydro-1H-imidazo[4,5-c]pyridine] | > 5000 |
| Fc1ccc(-c2nnc(N3CCc4[nH]cnc4[C@H]3c3cc4cccc(C(F)(F)F)n4n3)o2)cc1 [Example 2129, (S)-2-(4-fluorophenyl)-5-(4-(7-(trifluoromethyl)pyrazolo[1,5-a]pyridin-2-yl)-1,4,6,7-tetrahydro-5H-imidazo[4,5-c]pyridin-5-yl)-1,3,4-oxadiazole] | < 500 |
| Fc1ccc(-c2nnc(N3CCc4[nH]cnc4[C@@H]3c3cc4cccc(C(F)F)n4n3)o2)cc1 [Example 2130, (R)-2-(4-(7-(difluoromethyl)pyrazolo[1,5-a]pyridin-2-yl)-1,4,6,7-tetrahydro-5H-imidazo[4,5-c]pyridin-5-yl)-5-(4-fluorophenyl)-1,3,4-oxadiazole] | > 5000 |
| Fc1ccc(-c2nnc(N3CCc4[nH]cnc4[C@H]3c3cc4cccc(C(F)F)n4n3)o2)cc1 [Example 2131, (S)-2-(4-(7-(difluoromethyl)pyrazolo[1,5-a]pyridin-2-yl)-1,4,6,7-tetrahydro-5H-imidazo[4,5-c]pyridin-5-yl)-5-(4-fluorophenyl)-1,3,4-oxadiazole] | < 500 |
| Fc1cccc(F)c1-c1nnc(N2CCc3[nH]cnc3[C@@H]2c2cc3cccc(C(F)(F)F)n3n2)o1 [Example 2132, (R)-2-(2,6-difluorophenyl)-5-(4-(7-(trifluoromethyl)pyrazolo[1,5-a]pyridin-2-yl)-1,4,6,7-tetrahydro-5H-imidazo[4,5-c]pyridin-5-yl)-1,3,4-oxadiazole] | 1000 to 5000 |
| Fc1cccc(F)c1-c1nnc(N2CCc3[nH]cnc3[C@H]2c2cc3cccc(C(F)(F)F)n3n2)o1 [Example 2133, (S)-2-(2,6-difluorophenyl)-5-(4-(7-(trifluoromethyl)pyrazolo[1,5-a]pyridin-2-yl)-1,4,6,7-tetrahydro-5H-imidazo[4,5-c]pyridin-5-yl)-1,3,4-oxadiazole] | < 500 |
| Fc1cccc(N2CCc3[nH]cnc3[C@@H]2c2cc3ccccn3n2)n1 [Example 2134, (R)-5-(6-fluoropyridin-2-yl)-4-(pyrazolo[1,5-a]pyridin-2-yl)-4,5,6,7-tetrahydro-1H-imidazo[4,5-c]pyridine] | 1000 to 5000 |
| Fc1cccc(N2CCc3[nH]cnc3[C@H]2c2cc3ccccn3n2)n1 [Example 2135, (S)-5-(6-fluoropyridin-2-yl)-4-(pyrazolo[1,5-a]pyridin-2-yl)-4,5,6,7-tetrahydro-1H-imidazo[4,5-c]pyridine] | < 500 |
| FC(F)(F)c1ccc(N2CCc3[nH]cnc3[C@@H]2c2cc3cccc(Cl)n3n2)nc1 [Example 2137, (R)-4-(7-chloropyrazolo[1,5-a]pyridin-2-yl)-5-(5-(trifluoromethyl)pyridin-2-yl)-4,5,6,7-tetrahydro-1H-imidazo[4,5-c]pyridine] | > 5000 |
| FC(F)c1cccc2cc([C@@H]3c4nc[nH]c4CCN3c3ccc(C(F)(F)F)cn3)nn12 [Example 2138, (S)-4-(7-(difluoromethyl)pyrazolo[1,5-a]pyridin-2-yl)-5-(5-(trifluoromethyl)pyridin-2-yl)-4,5,6,7-tetrahydro-1H-imidazo[4,5-c]pyridine] | < 500 |

The next lines start with the values.

| AC50 [nM] | Structure (SMILES) |
| --- | --- |
| < 500 | O=C(c1cnc(C2CC2)o1)N1CCc2[nH]cnc2[C@H]1c1cc2c(C(F)F)cccn2n1 [Example 2102, (S)-(2-cyclopropyloxazol-5-yl)(4-(4-(difluoromethyl)pyrazolo[1,5-a]pyridin-2-yl)-1,4,6,7-tetrahydro-5H-imidazo[4,5-c]pyridin-5-yl)methanone] |
| < 500 | CC(C)(C)c1ncc(C(=O)N2CCc3[nH]cnc3[C@H]2c2cc3c(C(F)F)cccn3n2)o1 [Example 2104, (S)-(2-(tert-butyl)oxazol-5-yl)(4-(4-(difluoromethyl)pyrazolo[1,5-a]pyridin-2-yl)-1,4,6,7-tetrahydro-5H-imidazo[4,5-c]pyridin-5-yl)methanone] |
| < 500 | CC(C)(F)c1ncc(C(=O)N2CCc3[nH]cnc3[C@H]2c2cc3c(C(F)F)cccn3n2)o1 [Example 2106, (S)-(4-(4-(difluoromethyl)pyrazolo[1,5-a]pyridin-2-yl)-1,4,6,7-tetrahydro-5H-imidazo[4,5-c]pyridin-5-yl)(2-(2-fluoropropan-2-yl)oxazol-5-yl)methanone] |
| 500 to 1000 | Cn1ccc(-c2ncc(C(=O)N3CCc4[nH]cnc4[C@H]3c3cc4c(C(F)(F)F)cccn4n3)o2)n1 [Example 2109, (S)-(2-(1-methyl-1H-pyrazol-3-yl)oxazol-5-yl)(4-(4-(trifluoromethyl)pyrazolo[1,5-a]pyridin-2-yl)-1,4,6,7-tetrahydro-5H-imidazo[4,5-c]pyridin-5-yl)methanone] |
| < 500 | Cc1c(-c2ncc(C(=O)N3CCc4[nH]cnc4[C@H]3c3cc4c(C(F)(F)F)cccn4n3)o2)cnn1C [Example 2110, (S)-(2-(1,5-dimethyl-1H-pyrazol-4-yl)oxazol-5-yl)(4-(4-(trifluoromethyl)pyrazolo[1,5-a]pyridin-2-yl)-1,4,6,7-tetrahydro-5H-imidazo[4,5-c]pyridin-5-yl)methanone] |
| 1000 to 5000 | Cn1cc(-c2nc(C3CC3)c(C(=O)N3CCc4[nH]cnc4[C@@H]3c3cc4c(C(F)F)cccn4n3)o2)cn1 [Example 2115, (R)-(4-cyclopropyl-2-(1-methyl-1H-pyrazol-4-yl)oxazol-5-yl)(4-(4-(difluoromethyl)pyrazolo[1,5-a]pyridin-2-yl)-1,4,6,7-tetrahydro-5H-imidazo[4,5-c]pyridin-5-yl)methanone] |
| < 500 | O=C(c1oc(-c2ccccn2)nc1C1CC1)N1CCc2[nH]cnc2[C@H]1c1cc2c(C(F)F)cccn2n1 [Example 2122, (S)-(4-cyclopropyl-2-(pyridin-2-yl)oxazol-5-yl)(4-(4-(difluoromethyl)pyrazolo[1,5-a]pyridin-2-yl)-1,4,6,7-tetrahydro-5H-imidazo[4,5-c]pyridin-5-yl)methanone] |
| 1000 to 5000 | O=C(c1oc(-c2ccccn2)nc1C1CC1)N1CCc2[nH]cnc2[C@@H]1c1cc2c(C(F)F)cccn2n1 [Example 2123, (R)-(4-cyclopropyl-2-(pyridin-2-yl)oxazol-5-yl)(4-(4-(difluoromethyl)pyrazolo[1,5-a]pyridin-2-yl)-1,4,6,7-tetrahydro-5H-imidazo[4,5-c]pyridin-5-yl)methanone] |
| 1000 to 5000 | O=C(c1oc(-c2ccccn2)nc1C1CC1)N1CCc2[nH]cnc2[C@@H]1c1cc2c(C(F)(F)F)cccn2n1 [Example 2125, (R)-(4-cyclopropyl-2-(pyridin-2-yl)oxazol-5-yl)(4-(4-(trifluoromethyl)pyrazolo[1,5-a]pyridin-2-yl)-1,4,6,7-tetrahydro-5H-imidazo[4,5-c]pyridin-5-yl)methanone] |
| < 500 | O=C(c1cnc(C2CC2)o1)N1CCc2[nH]cnc2[C@H]1c1cc2c(C(F)(F)F)cccn2n1 [Example 2140, (S)-(2-cyclopropyloxazol-5-yl)(4-(4-(trifluoromethyl)pyrazolo[1,5-a]pyridin-2-yl)-1,4,6,7-tetrahydro-5H-imidazo[4,5-c]pyridin-5-yl)methanone] |
| < 500 | CC(C)(C)c1ncc(C(=O)N2CCc3[nH]cnc3[C@H]2c2cc3c(C(F)(F)F)cccn3n2)o1 [Example 2142, (S)-(2-(tert-butyl)oxazol-5-yl)(4-(4-(trifluoromethyl)pyrazolo[1,5-a]pyridin-2-yl)-1,4,6,7-tetrahydro-5H-imidazo[4,5-c]pyridin-5-yl)methanone] |
